# In patent US4555403A, “Pharmacologically active peptides and medicaments containing the same” (priority 1979, dated 1985):
# Non-standard residues stand in square brackets, D forms with d. Residues, ends and D or L forms follow the SMILES beside them.
# Key:
# [1] = stability of opiate-like activity towards rat blood plasma; type: in vitro ADME; conditions: for stability of opiate-like activity towards blood plasma: 300 μl freshly obtained rat blood plasma, 30 minutes stated for β-casomorphin-5
# Protocol: Analogously to the above-mentioned incubation example we tested the stability of the opiate-like activity towards blood plasma. Instead of 300 μl of homogenate, we employed 300 μl of freshly obtained rat blood plasma.
# [2] = stability of opiate-like activity upon incubation with rat brain homogenate and brain-supernate; type: in vitro ADME; conditions: for opiate-like activity after 30 minutes of incubation / opiate-like activity after 120 minutes of incubation: brain homogenate and brain-supernate, 37° C.
# Protocol: All incubations of the substances with brain homogenate and brain-supernate take place at 37° C. The respective incubation time is terminated by heating for 10 min. at a temperature of 95° C. This heating up to 95° C. serves to destroy enzymes which are still present and which might be detrimental for the biological procedure for proving the opiate-like activity.
# 1-2 mg each of the β-casomorphin-5 and of the D-Ala^2 -β-casomorphin-5 according to the invention are put into 50 μl of H2 O and mixed with 300 μl each of brain homogenate and brain-supernate. A sample of each is immediately heated from 37° C. up to 95° C. prior to the incubation. Thus these samples are in contact with the active enzymes only for a very short time and their content of opiate-like activity serves as a reference value at a zero point of time.
# After 15, 30, 60, and 120 min. each, further samples of the two incubated opiates are taken from the incubator and heated up to 95° C.
# The guinea pig intestine test described by Kosterlitz et al supra, serves as a proving system, which also includes the opiate amounts quantitatively. […]
# [3] = 0.35 μmol into the ventricle system of the brain, rats; cited from earlier work
# [4] = analgetic effect after parenteral or oral application in rats; type: in vivo; conditions: up to 150 mg per kg of body weight
# Protocol: The dose in these tests amounted up to 150 mg per kg of body weight of the rats. This disadvantage of the known peptides can be partially or completely attributed to inactivation of the substance in the blood and/or the brain.
Compound,stability of opiate-like activity towards blood plasma [1],opiate-like activity after 30 minutes of incubation [2],opiate-like activity after 120 minutes of incubation [2],opiate-like analgesia [3],time after which analgesia completely disappeared [3],time to maximum effectiveness of analgesia [3],incubation period after which opiate-like activity disappears ([1]; blood plasma),analgetic effect [4],incubation period after which opiate-like activity disappears ([2]; rat brain homogenate)
"COC(=O)CNC(=O)[C@@H]1CCCN1C(=O)[C@H](Cc1ccccc1)NC(=O)[C@@H](C)NC(=O)[C@@H](N)Cc1ccc(O)cc1 [D-Ala^2 -β-casomorphin-5, Tyr-D-Ala-Phe-Pro-Gly-methylester] (H-Y[dA]FPG-OMe)",retained its full activity,still could be proven,still could be proven,,,,,,
"COC(=O)CNC(=O)[C@@H]1CCCN1C(=O)[C@H](Cc1ccccc1)NC(=O)[C@@H](CCCNC(=N)N)NC(=O)[C@@H](N)Cc1ccc(O)cc1 [D-Arg^2 -β-casomorphin-5, Tyr-D-Arg-Phe-Pro-Gly-methylester] (H-Y[dR]FPG-OMe)",,still could be proven,still could be proven,,,,,,
"COC(=O)CNC(=O)[C@@H]1CCCN1C(=O)[C@H](Cc1ccccc1)NC(=O)[C@@H](CCSC)NC(=O)[C@@H](N)Cc1ccc(O)cc1 [D-Met^2 -β-casomorphin-5, Tyr-D-Met-Phe-Pro-Gly-methylester] (H-Y[dM]FPG-OMe)",,still could be proven,still could be proven,,,,,,
"COC(=O)CNC(=O)[C@@H]1CCCN1C(=O)[C@H](Cc1ccccc1)NC(=O)[C@@H](CO)NC(=O)[C@@H](N)Cc1ccc(O)cc1 [D-Ser^2 -β-casomorphin-5, Tyr-D-Ser-Phe-Pro-Gly-methylester] (H-Y[dS]FPG-OMe)",,still could be proven,still could be proven,,,,,,
Tyr-Pro-Phe-Pro-Gly (YPFPG; printed: Tyr-Pro-Phe-Pro-Gly) [β-casomorphin-5],already destroyed,did not show any opiate-like activity any longer,,strong opiate-like analgesia,60 min,≤ 10 min,15 min,does not show any analgetic effect,15 min
